Where “and” joins values, the source holds several entries; their conditions need not be identical. Equal entries are not always repeated.
Assay: wn = mass fraction of the nth substance listed
Details: 101 kPa, Liquid, Alternating current cell with electrodes

CCCCCCCCCCCCCCCC[N+](CC)(CC)CCCCCCCCCCCCCCCC.[Br-] [diethyldihexadecylammonium bromide] + O
w1 = 0.01
Details | electrical conductivity [S/m]
279.15 K | 0.0018
279.25 K | 0.00186
279.45 K | 0.00186
279.55 K | 0.00187
279.65 K | 0.00187
279.85 K | 0.00188
280.15 K | 0.00189
280.35 K | 0.00189
280.55 K | 0.0019
280.65 K | 0.0019
281.05 K | 0.0019
281.15 K | 0.00191
281.55 K | 0.00191
281.85 K | 0.00192
282.05 K | 0.00192
282.25 K | 0.00193
282.75 K | 0.00194
283.05 K | 0.00195
283.15 K | 0.00195
283.45 K | 0.00195
283.65 K | 0.00195
283.85 K | 0.00195
283.95 K | 0.00195
284.15 K | 0.00195
284.55 K | 0.00197
284.75 K | 0.00197
285.25 K | 0.00197
285.45 K | 0.00198
285.55 K | 0.00198
285.75 K | 0.00198
285.85 K | 0.00198
286.15 K | 0.00198
286.25 K | 0.00198
286.55 K | 0.00198
286.65 K | 0.00198
289.15 K | 0.002
290.15 K | 0.00201
290.85 K | 0.00202
291.45 K | 0.00204
291.75 K | 0.00205
292.05 K | 0.00206
292.95 K | 0.00207
295.55 K | 0.00209
296.65 K | 0.0021
297.65 K | 0.00211
298.65 K | 0.00212
299.45 K | 0.00213
300.75 K | 0.00214
301.25 K | 0.00215
302.35 K | 0.00216
303.05 K | 0.00217
303.65 K | 0.00219
304.05 K | 0.0022
305.25 K | 0.00226
305.55 K | 0.00229
305.95 K | 0.00235
306.45 K | 0.00239
306.95 K | 0.00247
307.35 K | 0.00254
307.65 K | 0.00264
307.95 K | 0.0027
308.15 K | 0.00278
308.45 K | 0.00294
308.75 K | 0.00294
308.95 K | 0.00295
309.55 K | 0.00296
310.25 K | 0.00297
311.35 K | 0.00299
312.45 K | 0.00304
312.65 K | 0.00305
313.55 K | 0.00305
313.95 K | 0.00308
314.15 K | 0.00314
316.55 K | 0.00319
317.25 K | 0.00323
318.65 K | 0.00322
318.75 K | 0.00325
319.15 K | 0.00326
320.75 K | 0.00328
320.95 K | 0.00331
321.05 K | 0.00333
322.05 K | 0.0034
322.15 K | 0.0034
323.15 K | 0.00347

CCCCCCCCCCCC[N+](C)(C)C.[Br-] [dodecyltrimethylammonium bromide] + O
w2 = 0.01
Details | electrical conductivity
279.15 K | 0.186 S/m
279.25 K | 0.186 S/m
279.35 K | 0.186 S/m
279.45 K | 0.186 S/m
279.55 K | 0.186 S/m
279.65 K | 0.186 S/m
279.85 K | 0.186 S/m
279.95 K | 0.186 S/m
280.05 K | 0.186 S/m
280.15 K | 0.186 S/m
280.25 K | 0.186 S/m
280.35 K | 0.186 S/m
280.45 K | 0.186 S/m
280.55 K | 0.186 S/m
280.65 K | 0.186 S/m
280.75 K | 0.185 S/m
280.85 K | 0.185 S/m
280.95 K | 0.185 S/m
281.05 K | 0.185 S/m
281.15 K | 0.185 S/m
281.25 K | 0.185 S/m
281.35 K | 0.185 S/m
281.45 K | 0.185 S/m
281.55 K | 0.185 S/m
281.65 K | 0.185 S/m
281.85 K | 0.185 S/m
281.95 K | 0.185 S/m
282.05 K | 0.185 S/m
282.15 K | 0.185 S/m
282.25 K | 0.185 S/m
282.35 K | 0.184 S/m
282.45 K | 0.184 S/m
282.55 K | 0.184 S/m
282.65 K | 0.184 S/m
282.75 K | 0.184 S/m
282.85 K | 0.184 S/m
282.95 K | 0.184 S/m
283.05 K | 0.184 S/m
283.15 K | 0.184 S/m
283.25 K | 0.184 S/m
283.35 K | 0.184 S/m
283.45 K | 0.184 S/m
283.55 K | 0.184 S/m
283.65 K | 0.184 S/m
283.75 K | 0.184 S/m
283.85 K | 0.184 S/m
283.95 K | 0.184 S/m
284.05 K | 0.183 S/m and 0.184 S/m
284.15 K | 0.184 S/m
284.25 K | 0.183 S/m
284.35 K | 0.183 S/m
284.45 K | 0.183 S/m
284.55 K | 0.183 S/m
284.65 K | 0.183 S/m
284.75 K | 0.183 S/m
284.85 K | 0.183 S/m
284.95 K | 0.183 S/m
285.05 K | 0.183 S/m
285.15 K | 0.183 S/m
288.05 K | 0.182 S/m
288.15 K | 0.182 S/m
288.25 K | 0.182 S/m
288.35 K | 0.182 S/m
288.45 K | 0.182 S/m
288.55 K | 0.182 S/m
288.65 K | 0.182 S/m
288.75 K | 0.182 S/m
288.85 K | 0.182 S/m
288.95 K | 0.182 S/m
289.85 K | 0.183 S/m
289.95 K | 0.183 S/m
290.05 K | 0.183 S/m
290.15 K | 0.183 S/m
290.25 K | 0.183 S/m
290.35 K | 0.183 S/m
290.45 K | 0.183 S/m
290.55 K | 0.183 S/m
290.65 K | 0.183 S/m
290.75 K | 0.183 S/m
290.85 K | 0.183 S/m
290.95 K | 0.183 S/m
291.05 K | 0.183 S/m
291.15 K | 0.183 S/m
291.25 K | 0.183 S/m
291.35 K | 0.183 S/m
291.45 K | 0.183 S/m
291.55 K | 0.183 S/m
291.65 K | 0.183 S/m
291.75 K | 0.183 S/m
291.85 K | 0.183 S/m
292.15 K | 0.183 S/m
292.25 K | 0.183 S/m
292.65 K | 0.183 S/m
292.75 K | 0.183 S/m
292.85 K | 0.183 S/m
292.95 K | 0.184 S/m
293.05 K | 0.184 S/m
293.15 K | 0.184 S/m
293.25 K | 0.184 S/m
294.25 K | 0.184 S/m
294.35 K | 0.184 S/m
294.45 K | 0.184 S/m
294.55 K | 0.184 S/m
294.75 K | 0.184 S/m
294.85 K | 0.185 S/m
294.95 K | 0.185 S/m
295.15 K | 0.185 S/m
295.25 K | 0.185 S/m
295.45 K | 0.185 S/m
295.65 K | 0.185 S/m
295.75 K | 0.185 S/m
296.05 K | 0.185 S/m
296.15 K | 0.185 S/m
296.55 K | 0.185 S/m
296.85 K | 0.186 S/m
297.05 K | 0.186 S/m
297.25 K | 0.186 S/m
297.45 K | 0.186 S/m
297.65 K | 0.186 S/m
297.85 K | 0.186 S/m
298.15 K | 0.186 S/m
298.65 K | 0.187 S/m
298.85 K | 0.187 S/m
299.05 K | 0.187 S/m
299.25 K | 0.188 S/m
299.55 K | 0.188 S/m
299.75 K | 0.188 S/m
299.85 K | 0.188 S/m
300.05 K | 0.188 S/m
300.25 K | 0.188 S/m
300.45 K | 0.188 S/m
300.75 K | 0.189 S/m
301.05 K | 0.189 S/m
301.55 K | 0.189 S/m
301.75 K | 0.189 S/m
301.95 K | 0.19 S/m
302.25 K | 0.19 S/m
302.55 K | 0.19 S/m
302.75 K | 0.19 S/m
302.95 K | 0.191 S/m
303.25 K | 0.191 S/m
303.65 K | 0.191 S/m
303.85 K | 0.191 S/m
304.15 K | 0.192 S/m
305.45 K | 0.193 S/m
306.15 K | 0.194 S/m
306.45 K | 0.194 S/m
306.75 K | 0.194 S/m
307.05 K | 0.195 S/m
307.85 K | 0.195 S/m
308.15 K | 0.196 S/m
308.45 K | 0.196 S/m
308.75 K | 0.196 S/m
309.35 K | 0.197 S/m
309.55 K | 0.197 S/m
309.85 K | 0.198 S/m
310.05 K | 0.198 S/m
310.35 K | 0.199 S/m
310.65 K | 0.199 S/m
310.95 K | 0.199 S/m
311.35 K | 0.199 S/m

— the NIST ThermoML archive (doi:10.1021/acs.jced.5b00367)
